Read-outs that look alike come from different tables or passages of the source.
What was measured:
[1] = system: actinic keratosis; conditions: cited from earlier work
[2] = system: HPV-11 (HE611260.1 strain); test: HPV-11 replicon assay (NanoLuc reporter) in C-33 A cells; format: cell-based, human papillomavirus; conditions: for EC90 / EC50: host cell line C-33A; for EC50: 48 hours post transfection
Experimental: (§1) The in vitro testing of the chlorin compounds and the positive control for antiviral cytopathic effect (CPE) was conducted through The National Institute of Allergy and Infectious Diseases (NIAID) NCEA Program. The in vitro testing was done by the method described by Beadle J R, Valiaeva N, Yang G, Yu J H, Broker T R, Aldern K A, et al. Synthesis and Antiviral Evaluation of Octadecyloxyethyl Benzyl 9-[(2-Phosphonomethoxy)ethyl]guanine (ODE-Bn-PMEG), a Potent Inhibitor of Transient HPV DNA Amplification. J Med Chem. 2016; 59(23):10470-8. PubMed PMID: 27933957. This method uses an HPV-11 replicon assay. The replicon (pMP619) is transfected into C-33 A cells grown as monolayers in 384-well plates. At 48 hours post transfection, the enzymatic activity of the destabilized NanoLuc reporter is assessed with NanoGlo reagent. […] The host C-33 A cells are epithelial cells originally isolated from the cervix of a uterine cancer patient. For reasons previously mentioned in this application, in vitro testing of compounds for potential antiviral activity against HPV strains cannot use human keratinocytes as the host cells due to the variable HPV replication activity with this cell line.
The control compound, PMEG, has a molecular weight of 289.188 g/mol. The molecular weight of the copper chlorin compounds evaluated are (1) 661.5 g/mol for disodium copper isochlorin e4; (2) 710.5 g/mol for trisodium copper chlorin p6; (3) 724.15 g/mol for trisodium copper chlorin e6; and (4) 740 g/mol for trisodium copper rhodin g7. The antiviral test results in Table 1 for each treatment composition and the control are reported in micromoles (uM) for the EC50, EC90, and CC50. The SI 50 and SI 90 are calculated from the EC50, EC90, and CC50 data.
(§2) The EC50 (or Effective Concentration 50) is the concentration of the test compound in micromoles that reduces virus replication by 50%. The EC90 (or Effective Concentration 90) is the concentration of the test compound in micromoles that reduces virus replication by 90%. CC50 (or Cytotoxic Concentration 50) is the concentration of the test compound in micromoles that reduces the cell viability of the virus host cell by 50%. The SI50 (or Selectivity Index 50) is a measure of both safety and efficacy or therapeutic index and is calculated by dividing the CC50 by the EC50. The SI90 (Selectivity Index 90) is calculated by dividing the CC50 by the EC90.

[3] = system: HPV-18 (strain: KC470230.1); test: HPV-18 genome plasmid replication assay in C-33 A cells; format: cell-based, human papillomavirus; conditions: for EC50 / EC90: host cell line C-33A
Experimental: as §1, §2
(§3) The in vitro test method used to assess activity of copper chlorins according to embodiments herein against HPV-18 and HPV-31 used the same replication and quantification method described previously for Table 1 results but with HPV-18 and HPV-31 genome plasmids. Results of the in vitro testing of three of the same copper chlorins as used in Table 1, as well as the same control, against HPV 18 and HPV 31 are summarized in Table 2 and Table 3 below.

[4] = system: HPV-11 (HE611260.1 strain); conditions: HPV-11 replicon assay; reference range; read-out: EC50 value range of the reference compound for this assay; cited from earlier work
[5] = system: HPV-31 (strain: HQ53768.1); test: HPV-31 genome plasmid replication assay in C-33 A cells; format: cell-based, human papillomavirus; conditions: for EC50 / EC90: host cell line C-33A
Experimental: as §1, §2, §3

[6] = Cytotoxicity to virus host cell (CC50); format: cell-based, human; conditions: human, C-33A host cells
[7] = biological target: Human neonatal epidermal keratinocytes (HEKn); test: Transcriptome study (Clariom S) of gene regulation in keratinocytes; format: cell-based; conditions: 20 ug/mL; 24-hour exposure; versus water control
Experimental: The transcriptome study of copper chlorins was conducted by Sunny Biodiscovery laboratory and Thermo-Fisher Scientific Microarray Research Services Laboratory, both of Santa Clara, California to determine gene regulatory activity and biomarkers associated with activity of the copper chlorins on human skin by assessing gene expression from keratinocyte culture after 24-hour exposure of each of the copper chlorins as previously detailed in U.S. Provisional Application Ser. No. 63/233,229 (filed on Aug. 14, 2021).
Human neonatal epidermal keratinocytes (HEKn) were obtained from Cell Applications 5 (San Diego, CA) and were plated in a 96 well plate (Bioland Scientific, Paramount, CA, item #701003 made of high clarity polystyrene) with keratinocyte growth media (Human EpiVita Serum-Free Growth Medium for Neonatal Cells; Cell Applications, San Diego, CA). Cells were mixed with growth media at a rate of 10,000 cells per 200 μl (approximately 10^4 cells per well) and added to the 96 wells (0.2 mL/well) and incubated overnight at 37° C.
Following the overnight incubation of keratinocytes, each of the 4 copper chlorins evaluated was separately dissolved in sterile distilled water at a concentration of 20 mg/mL. Dissolution occurs at 20-25° C. with slight agitation for 1-2 minutes until no solid particles were visible. This stock solution of 20 mg/mL was then further diluted with sterile water to a concentration of 500 μg/mL. The 500 μg/mL solution of each test copper chlorin was added to the cells in the growth media at a ratio of 1:20 (test solution: cells & media) and incubated in the wells for 24 hours at 37° C.
The following day the test solution and growth media were removed from the wells and the cells were rinsed with phosphate-buffered saline (PBS). The RNA from the cells treated with each of the test compounds was extracted and purified with a RNeasy Mini Plus Kit (Catalogue #74134; Qiagen, Germantown, MD) with automated lysing and homogenization using a Qiacube Connect robotic station (Qiagen, Germantown, MD). The protocol for RNA extraction is selected on the Qiacube Connect automated station and cell samples, labware, and reagents are loaded as instructed. Cells are first lysed and homogenized in highly denaturing guanidine-isothiocyanate-containing Buffer RLT Plus, which immediately inactivates RNases to ensure isolation of intact RNA. The lysate is passed through Qiacube Connect loaded gDNA Eliminator spin columns, 15 ethanol is added to the flow-through, and the samples are then applied to Qiacube preloaded RNeasy MinElute spin columns. RNA binds to the membrane and contaminants are washed away. High quality RNA is eluted and collected in a total of 30 μL sterile distilled water.
The stepwise procedure for production of RNA using RNeasy Plus procedure is outlined FIG. 4. Once collected, the purity of the RNA is assessed with the NanoDrop Lite spectrophotometer (Thermo Fisher Scientific, Waltham, MA) at 260 nm and 280 nm. The NanoDrop Lite unit is a small, stand-alone UV spectrophotometer that is designed 5 to measure microvolumes (1-2 μL) of nucleic acid and protein samples. Purity of the collected RNA was verified by adding 1 μL of the collected RNA to the NanoDrop Lite unit, selecting the RNA application on the NanoDrop Lite Home screen and following the stepwise measuring procedure as detailed in the NanoDrop Lite Manual.
The extracted RNA for each of the four treatment compositions evaluated from the above procedure was then transported on dry ice to a laboratory specializing in transcriptome analysis (Thermo Fisher Scientific Microarray Research Services Laboratory, Santa Clara, CA). The transcriptome profiling of the RNA samples was conducted using the Clariom S GeneChip® Pico Assay platform. […]

[8] = system: C-33 A cells; test: Cytotoxicity to virus host cell (CC50); format: cell-based, human

O=C(Cc1ccc(-c2ccc(OCCN3CCOCC3)cc2)cn1)NCc1ccccc1 [turbanibulin]
sustained complete clearance ([1]; after one year, estimated): ~27% | Initial complete clearance ([1]; trial 1 vs trial 2): 44-54%

Nc1nc2c(ncn2CCOCP(=O)(O)O)c(=O)[nH]1 [9-[2-(phosphono-methoxy)-ethyl]guanine, reference compound]
EC90 ([2]; Human papillomavirus): > 150 µM | EC50 ([2]; Human papillomavirus): 2.27 µM | EC50 ([3]; Human papillomavirus): 2.33 µM | EC90 ([3]; Human papillomavirus): 21.3 µM | EC50 [4]: 2 to 9.2 µM | EC50 ([5]; Human papillomavirus): 3.92 µM | EC90 ([5]; Human papillomavirus): 18.4 µM | CC50 ([6]; HPV-11 test (Table 1)): > 150 µM | CC50 ([6]; HPV-18 test (Table 2)): > 250 µM | CC50 ([6]; HPV-31 test (Table 3)): > 250 µM

Trisodium copper rhodin g7
EC90 [2]: 58.8 µM | EC50 [2]: 4.48 µM | antiviral activity classification based on SI50 [3]: highly active (SI50>50 highly active) | EC50 [3]: 1.19 µM | EC90 [3]: 2.62 µM | EC50 [5]: 0.36 µM | EC90 [5]: 1.62 µM

C=Cc1c(C)c2cc3nc(c(C(=O)[O-])c4[n-]c(cc5nc(cc1[n-]2)C(C)=C5CC)c(C)c4C(=O)[O-])C(CCC(=O)[O-])C3C.[Cu+2].[Na+].[Na+].[Na+] (centres unmarked) [Trisodium copper chlorin p6]
EC90 [2]: 23.6 µM | EC50 [2]: 5.51 µM | KDM7A lysine (K)-specific demethylase 7A gene regulation (keratinocytes) [7]: +2.38 fold | UNC5B Unc-5 netrin receptor B gene regulation (keratinocytes) [7]: +3.59 fold | CC50 [8]: 58.4 µM

O=C(O)Cc1ccccc1Nc1c(Cl)cccc1Cl [diclofenac]
AK recurrence rate ([1]; after 12 months from initial treatments): 85%

C=Cc1c(C)c2cc3nc(c(CC(=O)[O-])c4[n-]c(cc5nc(cc1[n-]2)C(C)=C5CC)c(C)c4C(=O)[O-])C(CCC(=O)[O-])C3C.[Cu+2].[Na+].[Na+].[Na+] (centres unmarked) [Trisodium copper chlorin e6]
EC50 converted from micromoles ([2]; converted with molecular weight 724.15): 1.998 µg/mL | EC90 [2]: 24.9 µM | EC50 [2]: 2.76 µM | EC50 [3]: 1.42 µM | EC90 [3]: 2.97 µM | CDKN1A cyclin-dependent kinase inhibitor 1A (p21, Cip1) gene regulation (keratinocytes) [7]: +2.22 fold | CYB561 Cytochrome b561 gene regulation (keratinocytes) [7]: −2.28 fold | EPGN Epithelial mitogen gene regulation (keratinocytes) [7]: −2.56 fold | MAPK14 Mitogen-activated protein kinase 14 gene regulation (keratinocytes) [7]: −2.23 fold | antiviral activity classification based on SI50 [5]: moderately active (SI50=10−49, moderately active) | EC50 [5]: 1.75 µM | EC90 [5]: 3.8 µM

Disodium copper isochlorin e4
EC90 [2]: 20.6 µM | EC50 [2]: 4.63 µM | EC50 [3]: 3.2 µM | EC90 [3]: 6.09 µM | CDKN1A cyclin-dependent kinase inhibitor 1A (p21, Cip1) gene regulation (keratinocytes) [7]: +2.46 fold | EPGN Epithelial mitogen gene regulation (keratinocytes) [7]: −3.17 fold | KDM7A lysine (K)-specific demethylase 7A gene regulation (keratinocytes) [7]: +2.62 fold | UNC5B Unc-5 netrin receptor B gene regulation (keratinocytes) [7]: +8.06 fold | EC50 [5]: 0.25 µM | EC90 [5]: 4.45 µM

— patent US12485127B2, “Compositions and methods for treatment and prevention of actinic keratosis using copper chlorin” (CHL Industries, LLC, priority 2024, dated 2025)
